Test results: patent US8242251B2, “Unsymmetrical cyanine dimer compounds and their application” (Life Technologies Corporation, priority 2003, dated 2012)
Entries after “also recorded” stand apart in the source; their conditions may differ.

Legend:
[1] = tested on: Bovine pulmonary arterial endothelial cells; test: Nucleic acid binding in methanol-fixed eukaryotic cells (Example 42); assay type: cell-based
Protocol: Bovine pulmonary arterial endothelial cells were grown in media for one day after plating on coverslips and then fixed 10 minutes in −20° C. 100% methanol. Cells were washed 3×5 minutes 50 mM phosphate buffered saline (PBS), pH 7.3. Cells were labeled with Compound 11 at 5 μM, 1 μM, or 500 nM concentration in PBS for 20 minutes, washed 3×10 minutes in PBS, and mounted in ProLong antifade mountant (Molecular Probes, Inc.). Cells were labeled with Compound 6 at 500 nM in PBS for 20 minutes. After the mountant had hardened, slides were examined on a Nikon Eclipse 800 upright fluorescent microscope and imaged with a blue-green filter set, a Princeton Instruments MicroMax cooled CCD camera, and Universal Imaging MetaMorph imaging software. Comparison of emission wavelength was made using a Zeiss 510 confocal microscope utilizing a META spectral unmixing system. […] Optimal labeling for both compounds appeared to be about […]. […] See, FIG. 6.

[2] = tested on: Bovine pulmonary arterial endothelial cells; test: Nucleic acid binding on RNase and DNase treated formaldehyde-fixed eukaryotic cells (Example 39); assay type: cell-based; settings: Compound 6 687 nM, Compound 19 1 μM
Protocol: (§1) Bovine pulmonary arterial endothelial cells were grown in media for one day after plating and then fixed fifteen minutes in 4% paraformaldehyde. Cells were washed 3×5 minutes in PBT (0.05M phosphate-buffered saline (PBS) containing 0.1% Triton X-100) and then treated with RNase (from Roche, at 1:500 dilution) or DNase (from Promega, at 1:100 dilution), or both for 2 hours at 37° C. Cells were washed again for 3×5 minutes in PBT and then labeled with Compound 6 at 687 nM concentration or Compound 19 at 1 μM concentration in PBS for 20 minutes. Cells were washed 3×10 minutes in PBS and mounted on microscope slides in ProLong antifade mounting medium (Molecular Probes, Inc.). After the mountant had hardened, slides were examined on a Nikon Eclipse 800 upright fluorescent microscope and imaged with a FITC filter set, a Princeton Instrument MicroMax cooled CCD camera, and Universal Imaging MetaMorph imaging software. […] See, FIG. 5.

[3] = tested on: Gram-positive (Staphylococcus aureus) and Gram-negative (Eshcerichia coli) bacteria; test: Rifampicin-depletion of bacterial RNA, flow cytometry and microplate reader (Example 37); assay type: cell-based
Protocol: Gram-positive (Staphylococcus aureus) and Gram-negative (Eshcerichia coli) bacteria in growth medium were treated with 25 μg/mL rifampicin for one hour. Treated and untreated bacteria were counted, diluted to 1×10^7 bacteria/mL in 0.85% NaCl, and 1 mL aliquots incubated with 0.25 μM, 0.5 μM, or 1 μM Compound 6 or Compound 9 for 10-15 minutes protected from light. The samples were analyzed by flow cytometry and then 100 μL volumes were transferred to a microplate in triplicate and analyzed by a microplate reader. The fluorescence intensity was corrected against the dye in solution, which was weakly fluorescent.

[4] = tested on: Bovine pulmonary arterial endothelial cells; test: Nucleic acid binding after RNase and DNase on methanol-fixed eukaryotic cells (Example 38); assay type: cell-based
Protocol: as §1, with “ten” for “fifteen”, “100% methanol at −20° C.” for “4% paraformaldehyde.”, “dilution)” for “dilution), or both”, “concentration” for “concentration or Compound 19 at 1 μM concentration in PBS”, “medium.” for “medium (Molecular Probes, Inc.).”, “4.” for “5.”

[5] = tested on: Bovine pulmonary arterial endothelial cells; test: Nucleic acid binding in live eukaryotic cells followed by fixing of cells (Example 40); assay type: cell-based
Protocol: Bovine pulmonary arterial endothelial cells were grown in media for one day after plating and then labeled before fixing with 687 nM Compound 6 for 20 minutes. Some cells were rinsed in media and separated for live imaging. The other cells were rinsed twice with media and then fixed in 4% paraformaldehyde for 15 minutes at room temperature, 0.5% glutaraldehyde for 5 minutes at room temperature, or 100% methanol for 10 minutes at −20° C. Cells were washed 3×10 minutes in phosphate-buffered saline and mounted on microscope slides in ProLong antifade mounting medium (Molecular Probes, Inc.). After the mountant had hardened, slides were examined on a Nikon Eclipse 800 upright fluorescent microscope and imaged with a FITC filter set, a Princeton Instrument MicroMax cooled CCD camera, and Universal Imaging MetaMorph imaging software. […] Fixation with either paraformaldehyde or glutaraldehyde removed all mitochondrial labeling. Nucleolar label remained, but nuclear label increased. […] Methanol-fixation had good nucleolar labeling, with only a slight increase in nuclear labeling. All mitochondrial labeling was removed. Cytoplasmic label increased slightly, but not nearly to the extent seen with other fixation. Results generally indicate that methanol-fixation is the recommended fixation technique.

RNA versus DNA = test: Screening of fluorescence properties and relative fluorescence enhancement with RNA versus DNA (Table 3); assay type: binding; settings: fluorescence enhancement when associated with RNA to that when associated with DNA
[6] = tested on: HeLa human cervical cancer cells; test: Nucleic acid binding in live eukaryotic cells, HeLa (Example 41); assay type: cell-based
Protocol: (§2) Bovine pulmonary arterial endothelial (BPEA) cells and HeLa human cervical cancer cells were grown in media for one day after plating on coverslips. Cells were labeled with 1 μM or 10 μM of Compound 21 for HeLa cells, or 10 μM in BPAE cells, in media at 37° C. for 20 minutes, then rinsed twice and mounted in warm medium. Coverslips were examined on a Nikon Eclipse 800 upright fluorescent microscope and imaged with a far red filter set, a Princeton Instruments MicroMax cooled CCD camera, and Universal Imaging MetaMorph imaging software.

[7] = tested on: Bovine pulmonary arterial endothelial (BPEA) cells; test: Nucleic acid binding in live eukaryotic cells, BPAE (Example 41); assay type: cell-based; settings: 10 μM
Protocol: as §2

[8] = methanol fixed cells, cytoplasm, nucleus and nucleolus (FIG. 4)
[9] = methanol-fixed, compound 687 nM
[10] = methanol-fixed, compound 687 nM, by eye

Q: For `C[n+]1c(/C=C2\C=C(N3CCN(C4=C/C(=C\c5sc6ccccc6[n+]5C)c5ccccc5N4c4ccccc4)CC3)N(c3ccccc3)c3ccccc32)sc2ccccc21.[Cl-].[Cl-]` [Compound 6], which “concentration of peak emission in detection of intracellular nucleic acid” value ([1]; FIG. 6) is on record?
A: 500 nM

Q: What about the optimal labeling concentration ([1]; methanol-fixed cells) of the same molecule?
A: about 500 μM

Q: What about the staining pattern ([1]; methanol-fixed, Compound 11 5 μM, 1 μM or 500 nM, Compound 6 500 nM, 20 minutes) of the same molecule?
A: strong nucleolar and cytoplasmic labeling, with dimmer nuclear labeling, indicating selective RNA staining

Q: And the “cytoplasmic label after DNase” value [2]?
A: significantly reduced by both RNase and DNase

Q: What about the “cytoplasmic label after RNase” value [2] of the same molecule?
A: significantly reduced by both RNase and DNase

Q: What about the “labeling of nucleoli after RNase” value [2] of the same molecule?
A: eliminated

Q: And the “nuclear labeling after DNase” value [2]?
A: significantly reduced by both RNase and DNase

Q: And the “nuclear labeling after RNase” value [2]?
A: significantly reduced by both RNase and DNase

Q: What about the “nucleolar intensity after DNase” value [2] of the same molecule?
A: significantly reduced

Q: And the “fluorescent signal of rifampicin treated versus untreated bacteria” value ([3]; 25 μg/mL rifampicin one hour, compound 0.25, 0.5 or 1 μM, 10-15 minutes)?
A: decrease in fluorescent signal after removal of mRNA

Q: What about the “signal intensity on RNA versus DNA in S. aureus cells with and without rifampicin” value ([3]; S. aureus, compound 0.25, 0.5 and 1 μM) of the same molecule?
A: stronger signal intensity when bound to RNA

Q: What about the “signal intensity of DNase treated cells” value [4, 8] of the same molecule?
A: no decrease in signal intensity

Q: What about the “signal intensity of RNase treated cells” value [4, 8] of the same molecule?
A: significant reduction in signal intensity

Q: And the “nuclear labeling after DNase” value [4, 9]?
A: not DNase

Q: What about the “nuclear labeling after RNase” value [4, 9] of the same molecule?
A: significantly reduced by RNase

Q: What about the “nucleolar intensity after DNase” value ([4]; methanol-fixed, compound 687 nM, DNase 2 hours 37° C.) of the same molecule?
A: did not significantly affect

Q: What about the “labeling of nucleoli after RNase” value ([4]; methanol-fixed, compound 687 nM, RNase 2 hours 37° C.) of the same molecule?
A: eliminated

Q: And the “cytoplasmic label after DNase” value [4, 10]?
A: not DNase

Q: What about the “cytoplasmic label after RNase” value [4, 10] of the same molecule?
A: reduced by RNase

Q: And the “labeling pattern in live cells” value ([5]; 687 nM, 20 minutes, live imaging)?
A: strong nucleolar label, strong punctate labeling in mitochondria consistent with mtDNA, and dimmer ubiquitous mitochondrial labeling

Q: And the “labeling pattern after fixation with paraformaldehyde or glutaraldehyde” value ([5]; labeled live at 687 nM, then 4% paraformaldehyde or 0.5% glutaraldehyde)?
A: removed all mitochondrial labeling. Nucleolar label remained, but nuclear label increased. General cytoplasmic labeling also increased significantly

Q: What about the “labeling pattern after methanol-fixation” value ([5]; labeled live at 687 nM, then 100% methanol 10 minutes −20° C.) of the same molecule?
A: good nucleolar labeling, with only a slight increase in nuclear labeling. All mitochondrial labeling was removed. Cytoplasmic label increased slightly

Q: And the “Fluorescence Enhancement Ratio (RNA/DNA)” value (RNA versus DNA)?
A: 7.0

Q: With `C[n+]1c(/C=C2\C=C(N3CCN(C4=C/C(=C\c5oc6ccccc6[n+]5C)c5ccccc5N4c4ccccc4)CC3)N(c3ccccc3)c3ccccc32)oc2ccccc21.[Cl-].[Cl-]` [Compound 20] as the molecule, how does the “selective detection of RNA in live cells” value [6] read?
A: did not demonstrate selective detection of RNA in live cells

Q: And the “labeling pattern in HeLa cells” value ([6]; 1 μM or 10 μM, far red filter set)?
A: mitochondrial labeling, with stronger punctate spots within the mitochondria, typical of mitochondrial DNA staining; also recorded: very dim nucleolar labeling

Q: What about the “cell permeability in live cells” value ([6]; 20 minutes 37° C.) of the same molecule?
A: cell permeable

Q: What about the “labeling pattern in BPAE cells” value [7] of the same molecule?
A: no specific labeling evident, and much higher off-cell background

Q: And the “Fluorescence Enhancement Ratio (RNA/DNA)” value (RNA versus DNA)?
A: 8.5
